Measured values from paper PMC5775428, “Towards an experimental classification system for membrane active peptides” (Scientific Reports, 2018).
Like-named read-outs stand apart in the source and are kept apart here.

What was measured:
[1] = tested on: Candida albicans; settings: Candida albicans; for Minimum inhibitory concentration, Average: average of triplicates
Summary of the method: (§1)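 MICs determined per CLSI M7-A10 (bacteria) and M27-A3 (yeasts) protocols, peptides tested at 0.5 to 256 μM. MIC taken as the lowest concentration with no cells seen by optical microscopy; three biological repeats with 2 technical replicates each.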

[2] = tested on: Bacillus subtilis; settings: Bacillus subtilis; for Minimum inhibitory concentration, Average: average of triplicates
Summary of the method: (§2)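 Read-out was optical microscopy, with the MIC taken as the concentration showing no detectable cells. Peptides spanned 0.5 to 256 μM under CLSI M7-A10 conditions for bacteria, in three biological repetitions of duplicate wells.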

[3] = tested on: Xanthomonas campestris; settings: for Minimum inhibitory concentration, Average: average of triplicates
Summary of the method: as §2

[4] = tested on: Staphylococcus aureus; settings: Staphylococcus aureus; for Minimum inhibitory concentration, Average: average of triplicates
Summary of the method: as §2

[5] = tested on: Erwinia carotovora; settings: Erwinia carotovora; for Minimum inhibitory concentration, Average: average of triplicates
Summary of the method: as §2

[6] = tested on: Pseudomonas aeruginosa
Summary of the method: as §2

[7] = tested on: Cryptococcus neoformans; settings: Cryptococcus neoformans; for Minimum inhibitory concentration, Average: average of triplicates
Summary of the method: as §1

[8] = tested on: Bacillus cereus
Summary of the method: as §2

[9] = tested on: Escherichia coli; settings: Escherichia coli; for Minimum inhibitory concentration, Average: average of triplicates
Summary of the method: as §2

[10] = tested on: Pseudomonas syringae pv. tabaci; settings: Pseudomonas syringae pv. tabaci; for Minimum inhibitory concentration, Average: average of triplicates
Summary of the method: as §2

[11] = CLSI M27-A3, 0.5 to 256 μM tested, triplicate 1, also published in ref 7
[12] = Pseudomonas aeruginosa, CLSI M7-A10, triplicate 1
[13] = Pseudomonas aeruginosa, average of triplicates
[14] = Pseudomonas aeruginosa, triplicate 2
[15] = Pseudomonas aeruginosa, triplicate 3
[16] = Bacillus cereus, CLSI M7-A10, triplicate 1
[17] = Bacillus cereus, average of triplicates

Sequence	Minimum inhibitory concentration, Average [1] [µM]	Minimum inhibitory concentration ([1]; triplicate 2) [µM]	Minimum inhibitory concentration ([1]; triplicate 3) [µM]	Minimum inhibitory concentration ([2]; CLSI M7-A10, triplicate 1) [µM]	Minimum inhibitory concentration, Average [2] [µM]	Minimum inhibitory concentration ([2]; triplicate 2) [µM]	Minimum inhibitory concentration ([2]; triplicate 3) [µM]	Minimum inhibitory concentration ([3]; CLSI M7-A10, triplicate 1) [µM]	Minimum inhibitory concentration, Average [3] [µM]	Minimum inhibitory concentration ([3]; triplicate 2) [µM]	Minimum inhibitory concentration ([3]; triplicate 3) [µM]	Minimum inhibitory concentration ([4]; CLSI M7-A10, triplicate 1) [µM]	Minimum inhibitory concentration, Average [4] [µM]	Minimum inhibitory concentration ([4]; triplicate 2) [µM]	Minimum inhibitory concentration ([4]; triplicate 3) [µM]	Minimum inhibitory concentration ([5]; CLSI M7-A10, triplicate 1) [µM]	Minimum inhibitory concentration, Average [5] [µM]	Minimum inhibitory concentration ([5]; triplicate 2) [µM]	Minimum inhibitory concentration ([5]; triplicate 3) [µM]	Minimum inhibitory concentration ([7]; CLSI M27-A3, triplicate 1) [µM]	other results
FFYNVIKIYGNMAGRISK [Cs03]	128.0	128	128	64	64.0	64	64	512	512.0	512	512	128	128.0	128	128	16	16.0	16	16	32	Minimum inhibitory concentration [1, 11]: 128 µM; Minimum inhibitory concentration [6]: 512 µM; Minimum inhibitory concentration, Average [6]: 512.0 µM; Minimum inhibitory concentration, Average [7]: 32.0 µM; Minimum inhibitory concentration ([7]; triplicate 2): 32 µM; Minimum inhibitory concentration ([7]; triplicate 3): 32 µM; Minimum inhibitory concentration [8]: 512 µM; Minimum inhibitory concentration, Average [8]: 512.0 µM; Minimum inhibitory concentration ([9]; CLSI M7-A10, triplicate 1): 128 µM; Minimum inhibitory concentration, Average [9]: 128.0 µM; Minimum inhibitory concentration ([9]; triplicate 2): 128 µM; Minimum inhibitory concentration ([9]; triplicate 3): 128 µM; Minimum inhibitory concentration ([10]; CLSI M7-A10, triplicate 1): 128 µM; Minimum inhibitory concentration, Average [10]: 128.0 µM; Minimum inhibitory concentration ([10]; triplicate 2): 128 µM; Minimum inhibitory concentration ([10]; triplicate 3): 128 µM
IKLRNVLKYLFRIDVIKEDIL [Tc03]	512.0	512	512	16	16.0	16	16	64	64.0	64	64	512	512.0	512	512	32	32.0	32	32	512	Minimum inhibitory concentration [6, 12]: 512 µM; Minimum inhibitory concentration, Average [6, 13]: 512.0 µM; Minimum inhibitory concentration [6, 14]: 512 µM; Minimum inhibitory concentration [6, 15]: 512 µM; Minimum inhibitory concentration, Average [7]: 512.0 µM; Minimum inhibitory concentration ([7]; triplicate 2): 512 µM; Minimum inhibitory concentration ([7]; triplicate 3): 512 µM; Minimum inhibitory concentration [8, 16]: 128 µM; Minimum inhibitory concentration, Average [8, 17]: 128.0 µM; Minimum inhibitory concentration ([8]; Bacillus cereus, triplicate 2): 128 µM; Minimum inhibitory concentration ([8]; Bacillus cereus, triplicate 3): 128 µM; Minimum inhibitory concentration ([9]; CLSI M7-A10, triplicate 1): 64 µM; Minimum inhibitory concentration, Average [9]: 64.0 µM; Minimum inhibitory concentration ([9]; triplicate 2): 64 µM; Minimum inhibitory concentration ([9]; triplicate 3): 64 µM; Minimum inhibitory concentration ([10]; CLSI M7-A10, triplicate 1): 32 µM; Minimum inhibitory concentration, Average [10]: 32.0 µM; Minimum inhibitory concentration ([10]; triplicate 2): 32 µM; Minimum inhibitory concentration ([10]; triplicate 3): 32 µM
GLLFKELQKLIRYQIFIGK [Tc10]	64.0	64	64	16	16.0	16	16	128	128.0	128	128	512	512.0	512	512	512	512.0	512	512	64	Minimum inhibitory concentration [1, 11]: 64 µM; Minimum inhibitory concentration [6]: 128 µM; Minimum inhibitory concentration, Average [6]: 128.0 µM; Minimum inhibitory concentration, Average [7]: 64.0 µM; Minimum inhibitory concentration ([7]; triplicate 2): 64 µM; Minimum inhibitory concentration ([7]; triplicate 3): 64 µM; Minimum inhibitory concentration [8, 16]: 512 µM; Minimum inhibitory concentration, Average [8, 17]: 512.0 µM; Minimum inhibitory concentration ([8]; Bacillus cereus, triplicate 2): 512 µM; Minimum inhibitory concentration ([8]; Bacillus cereus, triplicate 3): 512 µM; Minimum inhibitory concentration ([9]; CLSI M7-A10, triplicate 1): 16 µM; Minimum inhibitory concentration, Average [9]: 26.7 µM; Minimum inhibitory concentration ([9]; triplicate 2): 32 µM; Minimum inhibitory concentration ([9]; triplicate 3): 32 µM; Minimum inhibitory concentration ([10]; CLSI M7-A10, triplicate 1): 512 µM; Minimum inhibitory concentration, Average [10]: 512.0 µM; Minimum inhibitory concentration ([10]; triplicate 2): 512 µM; Minimum inhibitory concentration ([10]; triplicate 3): 512 µM
GAKLAKKQVRALGKFFSF [At03]	128.0	128	128	8	8.0	8	8	32	32.0	32	32	512	512.0	512	512	32	32.0	32	32	64	Minimum inhibitory concentration [1, 11]: 128 µM; Minimum inhibitory concentration [6, 12]: 512 µM; Minimum inhibitory concentration, Average [6, 13]: 512.0 µM; Minimum inhibitory concentration [6, 14]: 512 µM; Minimum inhibitory concentration [6, 15]: 512 µM; Minimum inhibitory concentration, Average [7]: 64.0 µM; Minimum inhibitory concentration ([7]; triplicate 2): 64 µM; Minimum inhibitory concentration ([7]; triplicate 3): 64 µM; Minimum inhibitory concentration [8, 16]: 512 µM; Minimum inhibitory concentration, Average [8, 17]: 512.0 µM; Minimum inhibitory concentration ([8]; Bacillus cereus, triplicate 2): 512 µM; Minimum inhibitory concentration ([8]; Bacillus cereus, triplicate 3): 512 µM; Minimum inhibitory concentration ([9]; CLSI M7-A10, triplicate 1): 16 µM; Minimum inhibitory concentration, Average [9]: 16.0 µM; Minimum inhibitory concentration ([9]; triplicate 2): 16 µM; Minimum inhibitory concentration ([9]; triplicate 3): 16 µM; Minimum inhibitory concentration ([10]; CLSI M7-A10, triplicate 1): 8 µM; Minimum inhibitory concentration, Average [10]: 8.0 µM; Minimum inhibitory concentration ([10]; triplicate 2): 8 µM; Minimum inhibitory concentration ([10]; triplicate 3): 8 µM
